These results are taken from patent US20240034649A1, “METHODS FOR ERADICATING BIOFILMS FROM PLUMBING SYSTEMS” (GORDON & ROSENBLATT, LLC, priority 2014, published 2024).

Bounds are passed on as bounds.

For one data set, the system named is Biofilm. Conditions: shock dose 50-80 mg/mL over 8 hours, acidic conditions, outlets flushed approx. 1 hour; cited from earlier work.
The test system of another data set is Legionella. The conditions noted are these: cited from earlier work.
The conditions of data set [1]: at STP; cited from earlier work.
Data set [2] deals with Pseudomonas aeruginosa biofilms. Put plainly: Minimal Biofilm Eradication Concentration (MBEC) assay, Calgary biofilm device. Conditions: 22-25° C. The format is cell-based.

Regarding chlorine dioxide [CD], the “bacteria recovered from showerheads after treatment” value in the data set on Biofilm is above 3000 cfu/ml. In addition, the “time needed to achieve significant reduction in Legionella positivity” value in the data set with Legionella was above 12 months. In data set [1], the “solubility in water relative to chlorine” value is listed as “approximately 10 times”. In addition, the Log10 reduction in data set [2] (CD 3.12 ppm, pH 6.5, 30 min) came to 0.82 CFU/mm^2; in data set [2] (CD 3.12 ppm, pH 7.5, 30 min), 1.63 CFU/mm^2; in data set [2] (CD 6.25 ppm, pH 6.5, 30 min) it was 2.56 CFU/mm^2; in data set [2] (CD 6.25 ppm, pH 7.5, 30 min), 2.38 CFU/mm^2; in data set [2] (CD 12.5 ppm, pH 6.5, 30 min), 2.34 CFU/mm^2; in data set [2] (CD 12.5 ppm, pH 7.5, 30 min) it was 2.49 CFU/mm^2. Besides, the Log10 reduction entry is “Total inhibition” in data set [2] (CD 50.0 ppm, pH 6.5, 30 min) and “total inhibition” in data set [2] (CD 50.0 ppm, pH 7.5, 30 min).

On to `OCl` [Bleach, sodium hypochlorite], for which the Log10 reduction in data set [2] (Bleach 3.15 ppm, pH 6.5, 30 min) is 0.16 CFU/mm^2; in data set [2] (Bleach 3.15 ppm, pH 7.5, 30 min), 0.96 CFU/mm^2; in data set [2] (Bleach 6.31 ppm, pH 6.5, 30 min), “Total inhibition”; in data set [2] (Bleach 6.31 ppm, pH 7.5, 30 min) it was 1.91 CFU/mm^2; in data set [2] (Bleach 12.6 ppm, pH 6.5, 30 min), “Total inhibition”; in data set [2] (Bleach 12.6 ppm, pH 7.5, 30 min), 3.03 CFU/mm^2. Also, the Log10 reduction result in data set [2] (Bleach 50.5 ppm, pH 6.5, 30 min) was “Total inhibition”; in data set [2] (Bleach 50.5 ppm, pH 7.5, 30 min) it was “Total inhibition”.
